Data as given in patent publication US20170234881A1, “METHODS OF DIAGNOSING AND TREATING CANCER” (INSERM ( INSTITUT NATIONAL DE LA SANTÉ ET DE LA RECHERCHE …, priority 2014, published 2017).

Columns and labels:
[1] = system: HSD1-transfected MCF7 cells; experiment: Proliferation of 11βHSD1-transfected MCF7 cells (BrDU); format: cell-based, human; details: 5 μM OCDO for 24 h
Protocol: FIG. 5. Ectopic expression of 11βHSD1 in MCF7 inhibits cell proliferation and OCDO reverses this effect. MCF7 cells were transfected by electroporation with a plasmid coding either the enzymes 11βHSD1 (HSD1) or the control empty vector (mock) and analyzed as followed: (A) the expression of 11βHSD1 was confirmed by immunoblotting using specific antibody against 11βHSD1 and normalized with actin; (B) The production of CT was determined by incubating the mock or the HSD1-transfected cells with ^14C-OCDO for 72 h at 37° C. The radioactive metabolites of interest were analyzed as in the legend of FIG. 4B. (C) The proliferation of the mock- or the HSD1-transfected MCF7 cells treated or not with 5 μM OCDO for 24 h were analyzed as in FIG. 2A. The results in B and C are the mean (±s.e.m) of three to five experiments, **P<0.01, ***P<0.001 (Student's t-test), ns: non specific.
MCF7 or HEK293T cells (5×10^6 cells) were transfected with 5 μg of the indicated plasmid using the NEON Transfection System and according to the manufacturer's recommendations. […] Several clones were analyzed by immunoblot analysis and real time RT-qPCR for the knock down of the expression of the protein of interest. […]

MCF7 cells = experiment: Cell invasion assay (matrigel-coated filters), MCF7; format: cell-based, human; details: concentration-dependent, level reached
Protocol: FIG. 2. OCDO is a tumor promoter in vitro and in vivo and its inhibition contributes to the anti-tumor effects of Tam and DDA. (A, B) Histograms representing the effect of OCDO or 17β-estrogen (E2) on MCF7 (A) and TS/A (B) cell proliferation after 24 h treatment using a colorimetric immunoassay measuring BrDU incorporation in DNA (C, D) Histogram representing the effect of OCDO on MCF7 (C) and TS/A (D) cell invasion. Data are the mean of three separate experiments (±s.e.m), *P<0.05, **P<0.01, ***P<0.001 (Student's t-test). (E, F) Mice were implanted s.c. with MCF7 (E) or TS/A (F) cells and animals (8 per group) were treated s.c. every day starting on the day of implantation with either the solvent vehicle or OCDO (16 μg/kg for MCF7 or 50 μg/kg for TS/A). Animals were monitored for tumour growth twice a week. The data are representative of three independent experiments. The mean tumor volume±s.e.m is shown, *P<0.05, **P<0.01, ***P<0.001 (analysis of variance (ANOVA), Dunnett's post test). (G) Mean (±s.e.m) of Ki67 positive cell number determined from IHC staining of MCF7 tumor sections from (E), n=8, *P<0.05 (Student's t-test) using HistoQuant, Pannoramic Viewer (3DHistech). […]
Invasion assays were carried out using Bio-Coat migration chambers (BD Falcon) with 8 μm filters previously coated with matrigel. […] The entire membranes were mounted on glass slides, and were counted under a microscope. […]

CC(C)CCC[C@@H](C)[C@H]1CC[C@H]2[C@@H]3CC(=O)[C@@]4(O)C[C@@H](O)CC[C@]4(C)[C@H]3CC[C@]12C [OCDO, 6-oxo-cholestan-3β,5α-diol]
effect on the decrease of cell proliferation induced by 11βHSD1 expression [1]: reversed this effect | invasiveness compared with the control (MCF7 cells): 6 fold
